Experiments:
Type in all cases: cell-based, human
MDSC cultures [1] = experiment: LPS-induced macrophage differentiation of MDSC cultures; settings: 1 μg/ml LPS; 12-14-day-old M-CSF-treated cultures with 80-90% MDSCs
Text: This transformation was verified by characterization of morphology, lipid staining, increased HLA-DR, HLA-DQ, IL-10 and TNF-α immunostaining (FIG. 3), and cytotoxicity (Table 1).

MDSC cultures [2] = experiment: Pancreatic islet β-cell-like  differentiation of MDSC cultures, immunostaining for β-cell markers; settings: high glucose, absence of serum
Experimental: Cells. MDSCs cultured in 8-well Lab-Tek chamber slides (Nunc, Naperville, Ill.)) were treated for 3-5 days with 1 mg/ml LPS (Sigma) or […] CD40Ab (R&D System, Minneapolis, Minn.)) in the presence of low (5 mM) or high (25 mM) glucose (Sigma). Human pancreatic islets were digested as described in Ricordi, C., et al., Diabetes 38 Suppl 1, 140-142 (1989) and purified on COBE 2991 (Mediatech, Herndon, Va.) using a continuous Ficoll gradient. Immunostaining. Tissue slides (Biochain, Hayward, Calif.) were immunostained after deparaffinization with AutoDewaxer (Phoenix Biotechnologies, Huntsville, Ala.). The secondary antibodies were peroxidase-, FITC-, or Texas Red® dye-conjugated affiniPure anti-mouse, donkey, goat or Guinea pig antibodies (Jackson ImmunoResearch Laboratories, West Grove, Pa.). […] Isotype-matched antibodies served as controls. Human macrophages served as positive controls. […] Immunostaining for the different antigens and insulin immuno-quantification was done as previously described (Zhao, Y., et al., Proc. Natl. Acad. Sci. USA, 100: 2426-2431 (2003). Non-specific esterase staining was performed using a-Naphthyl Acetate Esterase kit (Sigma).

MDSC cultures [3] = experiment: Transmission electron microscopy of treated MDSC cultures; settings: treated MDSC cultures in high glucose
Experimental: Transmission electron microscopy. Untreated or treated MDSC cultures were incubated in high glucose in 8-well Permanox® Slides (Nunc, Naperville, Ill.). Freshly human isolated islets were fixed for 2 h with 2% glutaraldehyde in cacodylate buffer at room temperature and the further sample preparation was done as described in Zhu, X., et al., Proc. Natl. Acad. Sci. (USA), 99:10299-10304 (2002). Fifty randomly selected cells were photographed using the Philips CM-120 transmission electron microscope.

insulin gene = experiment: Nested RT-PCR for insulin in MDSC cultures; settings: treated MDSC cultures; markedly increased in high glucose
Experimental: Nested RT-PCR. Nested RT-PCR was performed using the QIAGEN® OneStep RT-PCR kit (Qiagen, Valencia, Calif.), with the following: insulin forward-[…] (SEQ ID NO: 1) (PCR product size 324 bp), insulin forward nested-[…] (SEQ ID NO: 2) (PCR product size 266 bp), insulin reverse-[…] (SEQ ID NO: 3), glyceraldehyde phosphate dehydrogenase (GAPDH) forward-[…] (SEQ ID NO: 4) (PCR product size 541 bp), GAPDH forward nested-[…] (SEQ ID NO: 5) (PCR poduct size 282 bp), GAPDH reverse-[…] (SEQ ID NO: 6). Both PCR rounds were done using 40 cycles consisting of 30 seconds at 94° C., 1 minute at 58° C., and 1 minute at 72° C. First round PCR products were diluted 1:100 prior to the nested PCR. Final PCR products were electrophoresed through 1.7% agarose with ethidiumbromide and visualized by UV.

MDSC cultures [4] = experiment: Insulin release from MDSC cultures (insulin ELISA); settings: MDSC cultures treated 4-5 days
Experimental: Insulin release. MDSC cultures incubated in 24-well tissue culture plates (Costar, Cambridge, Mass.) at 70-80% confluence were treated for 4-5 days with LPS or CD40Ab. Insulin secretion was assessed as previously described in Schuit, F., et al., J. Biol. Chem. 272:18572-18579 (1997), using an insulin ELISA kit (Linco Research, MO). When required, the untreated or treated cultures were also pre-incubated for 30 min with […] diazoxide, 10 mM tolbudamide, or […] IBMX.

lipopolysaccharide [LPS]
macrophage differentiation of MDSCs (MDSC cultures [1]): transformed the MDSCs into standard macrophages
insulin level by quantitative immunostaining (MDSC cultures [2]): about half the level of islet beta-cells
granules seen by transmission electron microscopy (MDSC cultures [3]): many halo granules of different sizes
insulin gene expression (insulin gene): express the insulin gene
insulin release by ELISA (MDSC cultures [4]): glucose-dependent insulin release
